Assay results reported in article PMC10583863 (European journal of medicinal chemistry, 2022).
Converted amounts (≈) assume the structure as drawn. Where two headings read alike, the source gives them in different places.

Key:
M. tuberculosis H37Rv [1] = assay: microbe, parasite or virus in culture; format: cell-based, Mycobacterium tuberculosis; conditions: for MIC90: Mycobacterium tuberculosis, H37RV, read-out: MIC90 MtbH37Rv
[2] = in words; cited from earlier work
[3] = system: M. marinum infected zebrafish larvae; assay: Zebrafish larvae model of M. marinum infection; format: in vivo; conditions: caudal vein microinjection, ca. 6–8 ng, by tendency
[4] = introduction, earlier work; cited from earlier work
M. tuberculosis H37Rv [5] = conditions: activity already reported, cited from earlier work
M. abscessus Bamboo = assay: MIC by broth microdilution, NTM; conditions: especially against M. abscessus Bamboo; weak
[6] = Metabolic stability in human liver microsomes; format: in vitro ADME; conditions: 60 min incubation
Ty1 (Rv3405c, c190t) = assay: MIC by micro-broth dilution method, Mtb panel; format: cell-based; conditions: Mycobacterium tuberculosis
81.10 (ethA, Δ1109–37) = format: cell-based; conditions: strain 81.10 (ethA, Δ1109–37)
H37Rv = assay: MIC by micro-broth dilution method, Mtb panel; format: cell-based, Mycobacterium tuberculosis; conditions: strain H37Rv

Question: With `Cc1ccc(Nc2nc(-c3cc(C(=O)Nc4ccccc4)no3)cs2)cc1` [Compound 3] as the compound, how does the MIC90 (M. tuberculosis H37Rv [1]) read?
Answer: Its MIC90 is 2.7 µM.

Question: And the reactivity to glutathione [2]?
Answer: Its reactivity to glutathione is “ruling out the possibility of indiscriminate reactivity toward biological nucleophiles”.

Question: What about the granuloma formation [3] of the same compound?
Answer: The granuloma formation was “granuloma formation was slightly less pronounced than in the untreated control group”.

Question: What does the source list for `Cc1ccc(Nc2nc(-c3cc(C(=O)Nc4ccccn4)no3)cs2)cc1` [Compound 4]?
Answer: MIC90 (M. tuberculosis H37Rv [1]): 1.3 µM; half-life in human liver microsomes (HLM) [4]: 35 ± 0.8 min; reactivity to glutathione [2]: ruling out the possibility of indiscriminate reactivity toward biological nucleophiles

Question: With `Cc1ccc(Nc2nc(-c3cc(C(=O)Nc4ccc(F)cc4)no3)cs2)cc1` [Compound 9a] as the compound, how does the MIC90 (M. tuberculosis H37Rv [1]) read?
Answer: Its MIC90 is 2.5 µM.

Question: For `Cc1ccc(Nc2nc(-c3cc(C(=O)Nc4cccc(F)c4)no3)cs2)cc1` [Compound 10a], which MIC90 (M. tuberculosis H37Rv [1]) is on record?
Answer: The MIC90 was 6.3 µM.

Question: For `Cc1ccc(Nc2nc(-c3cc(C(=O)Nc4ccccc4F)no3)cs2)cc1` [Compound 11a], which MIC90 (M. tuberculosis H37Rv [1]) is on record?
Answer: The MIC90 was 2.5 µM.

Question: With `Cc1ccc(NC(=O)c2cc(-c3csc(Nc4ccc(C)cc4)n3)on2)cc1` [Compound 14a] as the compound, how does the MIC90 (M. tuberculosis H37Rv [1]) read?
Answer: The MIC90 was 2.6 µM.

Question: With `Cc1ccc(Nc2nc(-c3cc(C(=O)Nc4cccc(C)c4)no3)cs2)cc1` [Compound 15a] as the compound, how does the MIC90 (M. tuberculosis H37Rv [1]) read?
Answer: Its MIC90 is 1.3 µM.

Question: Which MIC90 (M. tuberculosis H37Rv [1]) does the source give for `Cc1ccc(Nc2nc(-c3cc(C(=O)Nc4ccccc4C)no3)cs2)cc1` [Compound 16a] here?
Answer: Its MIC90 is 2.5 µM.

Question: For `Cc1ccc(Nc2nc(-c3cc(C(=O)Nc4ccc(O)cc4)no3)cs2)cc1` [Compound 20a], which MIC90 (M. tuberculosis H37Rv [1]) is on record?
Answer: Its MIC90 is 1.3 µM.

Question: For `Cc1ccc(Nc2nc(-c3cc(C(=O)Nc4ccc(O)cc4)no3)cs2)cc1O` [Compound 20e], which MIC90 (M. tuberculosis H37Rv [1]) is on record?
Answer: The MIC90 was 12.2 µM.

Question: For `Cc1ccc(Nc2nc(-c3cc(C(=O)Nc4cccc(O)c4)no3)cs2)cc1` [Compound 21a], which MIC90 (M. tuberculosis H37Rv [1]) is on record?
Answer: The MIC90 was 1.3 µM.

Question: Which MIC90 (M. tuberculosis H37Rv [1]) does the source give for `Cc1ccc(Nc2nc(-c3cc(C(=O)Nc4ccccc4O)no3)cs2)cc1` [Compound 22a] here?
Answer: Its MIC90 is 1.3 µM.

Question: Which MIC90 (M. tuberculosis H37Rv [1]) does the source give for `Cc1ccc(Nc2nc(-c3cc(C(=O)Nc4ccncc4)no3)cs2)cc1` [Compound 23a] here?
Answer: The MIC90 was 2.6 µM.

Question: With `Cc1ccc(Nc2nc(-c3cc(C(=O)Nc4cccnc4)no3)cs2)cc1` [Compound 24a] as the compound, how does the MIC90 (M. tuberculosis H37Rv [1]) read?
Answer: Its MIC90 is 26 µM.

Question: Which MIC90 (M. tuberculosis H37Rv [1]) does the source give for `Cc1ccc(Nc2nc(-c3cc(C(=O)Nc4cc(C)ccn4)no3)cs2)cc1` [Compound 27a] here?
Answer: The MIC90 was 2.6 µM.

Question: With `Cc1ccc(Nc2nc(-c3cc(C(=O)Nc4ccsc4)no3)cs2)cc1` [Compound 32a] as the compound, how does the MIC90 (M. tuberculosis H37Rv [1]) read?
Answer: The MIC90 was 2.6 µM.

Question: With `O=C(Nc1ccccc1)c1cc(-c2csc(Nc3cc(Cl)cc(Cl)c3)n2)on1` [Compound 35b] as the compound, how does the “MIC90 MtbH37Rv” value (M. tuberculosis H37Rv [5]) read?
Answer: The value was greater than 20 µg/mL.

Question: Which MIC90 (M. tuberculosis H37Rv [1]) does the source give for `Cc1cc(C)cc(Nc2nc(-c3cc(C(=O)Nc4ccccc4)no3)cs2)c1` [Compound 35d] here?
Answer: Its MIC90 is 2.5 µM.

Question: Which “MIC90 MtbH37Rv” value (M. tuberculosis H37Rv [5]) does the source give for `O=C(Nc1ccccn1)c1cc(-c2csc(Nc3cc(Cl)cc(Cl)c3)n2)on1` [Compound 36b] here?
Answer: The value was greater than 20 µg/mL.

Question: For `Cc1ccc(Nc2nc(-c3cc(C(=O)Nc4ccccc4)no3)cs2)cc1O` [Compound 42e], which “antitubercular whole cell activity in words” value (M. tuberculosis H37Rv [1]) is on record?
Answer: The value was “retained a certain activity”.

Question: What about the MIC90 (M. tuberculosis H37Rv [1]) of the same compound?
Answer: The MIC90 was 6.3 µM.

Question: What does the source list for `O=C(Nc1ccccc1)c1cc(-c2csc(Nc3ccccc3)n2)on1` [Compound 42g]?
Answer: MIC90 (M. tuberculosis H37Rv [1]): 3.4 µM; inhibitory activity in words (M. abscessus Bamboo): concentration-dependent inhibitory activity

Question: Which “metabolic stability in HLM in words” value [6] does the source give for `Nc1nc(-c2cc(C(=O)Nc3ccccc3)no2)cs1` [Compound 42i] here?
Answer: Its value is “did not show any significant biotransformation”.

Question: Which “metabolic stability in HLM in words” value [6] does the source give for `O=C(Nc1ccccc1)c1cc(-c2csc(Nc3cc(Cl)c(Cl)c(Cl)c3)n2)on1` [Compound 42j] here?
Answer: The value was “did not show any significant biotransformation”.

Question: With `O=C(Nc1ccccc1)c1cc(-c2csc(Nc3ccc(Cl)cc3)n2)on1` [Compound 42l] as the compound, how does the MIC90 (M. tuberculosis H37Rv [1]) read?
Answer: Its MIC90 is 3.2 µM.

Question: With `O=C(Nc1ccccc1)c1cc(-c2csc(Nc3cccc(O)c3)n2)on1` [Compound 42m] as the compound, how does the MIC90 (M. tuberculosis H37Rv [1]) read?
Answer: Its MIC90 is 13.2 µM.

Question: For `O=C(Nc1ccccc1)c1cc(-c2csc(Nc3ccc(CO)cc3)n2)on1` [Compound 42n, 5-(2-((4-(hydroxymethyl)phenyl)amino)thiazol-4-yl)-N-phenylisoxazole-3-carboxamide], which “antitubercular whole cell activity in words” value (M. tuberculosis H37Rv [1]) is on record?
Answer: The value was “no whole cell activity”.

Question: For `Cc1ccc(Nc2nc(-c3cc(C(=O)Nc4ccccn4)no3)cs2)cc1O` [Compound 43e], which “antitubercular whole cell activity in words” value (M. tuberculosis H37Rv [1]) is on record?
Answer: The value was “retained a certain activity”.

Question: What about the MIC90 (M. tuberculosis H37Rv [1]) of the same compound?
Answer: Its MIC90 is 12.6 µM.

Question: With `O=C(Nc1ccccn1)c1cc(-c2csc(Nc3ccccc3)n2)on1` [Compound 43g] as the compound, how does the “inhibitory activity in words” value (M. abscessus Bamboo) read?
Answer: Its value is “concentration-dependent inhibitory activity”.

Question: For `Nc1nc(-c2cc(C(=O)Nc3ccccn3)no2)cs1` [Compound 43i], which “metabolic stability in HLM in words” value [6] is on record?
Answer: Its value is “did not show any significant biotransformation”.

Question: Which “metabolic stability in HLM in words” value [6] does the source give for `O=C(Nc1ccccn1)c1cc(-c2csc(Nc3cc(Cl)c(Cl)c(Cl)c3)n2)on1` [Compound 43j] here?
Answer: The value was “did not show any significant biotransformation”.

Question: Which “antitubercular whole cell activity in words” value (M. tuberculosis H37Rv [1]) does the source give for `O=C(Nc1ccccn1)c1cc(-c2csc(Nc3ccc(CO)cc3)n2)on1` [Compound 43n, 5-(2-((4-(hydroxymethyl)phenyl)amino)thiazol-4-yl)-N-(pyridin-2-yl)isoxazole-3-carboxamide] here?
Answer: Its value is “no whole cell activity”.

Question: Which MIC90 (M. tuberculosis H37Rv [1]) does the source give for `Cc1ccc(Nc2nc(-c3cc(C(=O)Nc4ccccc4)no3)co2)cc1` [Compound 47] here?
Answer: Its MIC90 is 2.8 µM.

Question: With `Cc1ccc(Nc2nc(-c3cc(C(=O)Nc4ccccn4)no3)co2)cc1` [Compound 48] as the compound, how does the “MIC90 MtbH37Rv” value (M. tuberculosis H37Rv [5]; value in brackets) read?
Answer: The value was 6.9 µM.

Question: For `CCOC(=O)c1cc(-c2cccc(Nc3ccc(C)cc3)n2)on1` [Compound 53, Ethyl 5-(6-(p-tolylamino)pyridin-2-yl)isoxazole-3-carboxylate], which MIC90 (M. tuberculosis H37Rv [1]) is on record?
Answer: The MIC90 was 3.8 µM.

Question: For `O=C(Nc1ccccc1)c1cc(C(=O)Nc2nc3ccccc3s2)on1` [Compound 58a], which MIC90 (M. tuberculosis H37Rv [1]) is on record?
Answer: Its MIC90 is greater than 40 µg/mL.

Question: For `Cc1ccc2nc(NC(=O)c3cc(C(=O)Nc4ccccn4)no3)sc2c1` [Compound 58b], which MIC90 (M. tuberculosis H37Rv [1]) is on record?
Answer: Its MIC90 is greater than 40 µg/mL.

Question: With `O=C(Nc1ccccn1)c1cc(C(=O)Nc2nc3ccccc3s2)on1` [Compound 59a] as the compound, how does the MIC90 (M. tuberculosis H37Rv [1]) read?
Answer: Its MIC90 is greater than 40 µg/mL.

Question: Which MIC90 (M. tuberculosis H37Rv [1]) does the source give for `Cc1ccc2nc(NC(=O)c3cc(C(=O)Nc4ccccc4)no3)sc2c1` [Compound 59b] here?
Answer: Its MIC90 is greater than 40 µg/mL.

Question: Which MIC90 (M. tuberculosis H37Rv [1]) does the source give for `Cc1cccc(NC(=O)c2cc(C(=O)Nc3nc4ccccc4s3)on2)c1` [Compound 60a] here?
Answer: Its MIC90 is greater than 40 µg/mL.

Question: For `Cc1cccc(NC(=O)c2cc(C(=O)Nc3nc4ccc(C)cc4s3)on2)c1` [Compound 60b], which MIC90 (M. tuberculosis H37Rv [1]) is on record?
Answer: Its MIC90 is greater than 40 µg/mL.

Question: For `COc1ccc2sc(NC(=O)c3cc(C(=O)Nc4cccc(C)c4)no3)nc2c1` [Compound 60c], which MIC90 (M. tuberculosis H37Rv [1]) is on record?
Answer: The MIC90 was greater than 40 µg/mL.

Question: For `O=C(Nc1ccc(O)cc1)c1cc(C(=O)Nc2nc3ccccc3s2)on1` [Compound 61a], which MIC90 (M. tuberculosis H37Rv [1]) is on record?
Answer: Its MIC90 is greater than 40 µg/mL.

Question: Which MIC90 (M. tuberculosis H37Rv [1]) does the source give for `Cc1ccc2nc(NC(=O)c3cc(C(=O)Nc4ccc(O)cc4)no3)sc2c1` [Compound 61b] here?
Answer: Its MIC90 is greater than 40 µg/mL.

Question: For `O=C(Nc1cccc(F)c1)c1cc(C(=O)Nc2nc3ccccc3s2)on1` [Compound 62a], which MIC90 (M. tuberculosis H37Rv [1]) is on record?
Answer: The MIC90 was greater than 40 µg/mL.

Question: For `O=C(Nc1cccc(O)c1)c1cc(C(=O)Nc2nc3ccccc3s2)on1` [Compound 63a], which MIC90 (M. tuberculosis H37Rv [1]) is on record?
Answer: The MIC90 was greater than 40 µg/mL.

Question: With `NNC(=O)c1ccncc1` [INH, Isoniazide] as the compound, how does the “MIC90 MtbH37Rv” value (M. tuberculosis H37Rv [1]; REMA method, M. tuberculosis H37Rv) read?
Answer: The value was 0.025 µg/mL (≈ 0.182 µM).

Question: What about the MIC90 (Ty1 (Rv3405c, c190t)) of the same compound?
Answer: The MIC90 was 0.025 µg/mL (≈ 0.182 µM).

Question: And the MIC90 (81.10 (ethA, Δ1109–37))?
Answer: The MIC90 was 0.025 µg/mL (≈ 0.182 µM).

Question: And the MIC90 (H37Rv)?
Answer: Its MIC90 is 0.025 µg/mL (≈ 0.182 µM).
